Values quoted from earlier work, collected in patent US20250255843A1, “COMPOSITIONS COMPRISING CYSTEINE PRODRUGS AND METHODS USING THEREOF” (Nature's Fusions, LLC, priority 2022, published 2025).

Legend:
[1] = cell membrane
[2] = in vivo
[3] = more stable than cysteine
[4] = oral; metabolized in liver and kidney
oxidative damage = conditions: relative to NAC

membrane penetration [1] | bioavailability [2] | stability relative to cysteine [3] | detectability in plasma [4] | SMILES | increase of plasma (plasma GSH; medium to high doses (up to 8 g/day)) | protective agent against oxidative damage, concentration lower than that of NAC (oxidative damage) | increase of plasma GSH (plasma GSH; lower than 8 g/day doses) [%]
poorly membrane penetrable | 4-6% | about 10 times | almost undetectable in plasma | CC(=O)N[C@@H](CS)C(=O)O [NAC, N-acetyl L-cysteine] | 5-20% |  | 
cell-permeable | 60-80% |  |  | CCOC(=O)[C@H](CS)NC(C)=O [NACET, N-acetyl L-cysteine ethyl ester] |  | 5-10 times | 250
